# Columns and labels:
# [1] = Selectivity index, ratio of IC50 for cytotoxicity against chinese hamster V79 cells to IC50 for cytotoxicity against human PC-3 cells; type: toxicity, cell-based; settings: V79 cells versus PC-3 cells, read-out: Ratio IC50
# [2] = system: MDA-MB-231; assay: Cytotoxicity against human MDA-MB-231 cells incubated for 72 hrs by MTT assay; type: functional, cell-based; settings: MDA-MB-231, 72 h
# [3] = system: Staphylococcus aureus; assay: Antimicrobial activity against Staphylococcus aureus NCTC 4163 incubated for 18 hrs by twofold microdilution method; type: functional
# [4] = system: A549; assay: Cytotoxicity against human A549 cells incubated for 72 hrs by MTT assay; type: functional, cell-based; settings: A549, 72 h
# [5] = Selectivity index, ratio of IC50 for cytotoxicity against human HaCaT cells to IC50 for cytotoxicity against human A549 cells; type: toxicity, cell-based; settings: HaCaT cells versus A549 cells, read-out: Ratio IC50
# [6] = Selectivity index, ratio of IC50 for cytotoxicity against human HaCaT cells to IC50 for cytotoxicity against human SW620 cells; type: toxicity, cell-based; settings: HaCaT cells versus SW620 cells, read-out: Ratio IC50
# [7] = Selectivity index, ratio of IC50 for cytotoxicity against chinese hamster V79 cells to IC50 for cytotoxicity against human SW620 cells; type: toxicity, cell-based; settings: V79 cells versus SW620 cells, read-out: Ratio IC50
# [8] = system: SW480; assay: Cytotoxicity against human SW480 cells incubated for 72 hrs by MTT assay; type: functional, cell-based; settings: SW480, 72 h
# [9] = system: PC-3; assay: Cytotoxicity against human PC-3 cells incubated for 72 hrs by MTT assay; type: functional, cell-based; settings: PC-3, 72 h
# [10] = system: Staphylococcus aureus; assay: Antimicrobial activity against Staphylococcus aureus ATCC 6538 incubated for 18 hrs by twofold microdilution method; type: functional
# [11] = system: Staphylococcus aureus; assay: Antimicrobial activity against Staphylococcus aureus ATCC 25923 incubated for 18 hrs by twofold microdilution method; type: functional
# [12] = Selectivity index, ratio of IC50 for cytotoxicity against human HaCaT cells to IC50 for cytotoxicity against human PC-3 cells; type: toxicity, cell-based; settings: HaCaT cells versus PC-3 cells, read-out: Ratio IC50
# [13] = system: Staphylococcus epidermidis; assay: Antimicrobial activity against Staphylococcus epidermidis ATCC 12228 incubated for 18 hrs by twofold microdilution method; type: functional
# [14] = Selectivity index, ratio of IC50 for cytotoxicity against chinese hamster V79 cells to IC50 for cytotoxicity against human SW480 cells; type: toxicity, cell-based; settings: V79 cells versus SW480 cells, read-out: Ratio IC50
# [15] = Selectivity index, ratio of IC50 for cytotoxicity against chinese hamster V79 cells to IC50 for cytotoxicity against human A549 cells; type: toxicity, cell-based; settings: V79 cells versus A549 cells, read-out: Ratio IC50
# [16] = system: Staphylococcus aureus; assay: Antimicrobial activity against Staphylococcus aureus ATCC 29213 incubated for 18 hrs by twofold microdilution method; type: functional
# [17] = system: SW-620; assay: Cytotoxicity against human SW620 cells incubated for 72 hrs by MTT assay; type: functional, cell-based; settings: SW-620, 72 h
# [18] = system: Escherichia coli; assay: Antimicrobial activity against Escherichia coli ATCC 25922 incubated for 18 hrs by twofold microdilution method; type: functional
# [19] = system: Pseudomonas aeruginosa; assay: Antimicrobial activity against Pseudomonas aeruginosa ATCC 15442 incubated for 18 hrs by twofold microdilution method; type: functional
# [20] = Cytotoxicity against chinese hamster V79 cells incubated for 72 hrs by MTT assay; type: toxicity, cell-based, Cricetulus griseus
# [21] = Selectivity index, ratio of IC50 for cytotoxicity against human HaCaT cells to IC50 for cytotoxicity against human SW480 cells; type: toxicity, cell-based; settings: HaCaT cells versus SW480 cells, read-out: Ratio IC50
# [22] = Selectivity index, ratio of IC50 for cytotoxicity against human HaCaT cells to IC50 for cytotoxicity against human MDA-MB-231 cells; type: toxicity, cell-based; settings: HaCaT cells versus MDA-MB-231 cells, read-out: Ratio IC50
# [23] = Selectivity index, ratio of IC50 for cytotoxicity against chinese hamster V79 cells to IC50 for cytotoxicity against human MDA-MB-231 cells; type: toxicity, cell-based; settings: V79 cells versus MDA-MB-231 cells, read-out: Ratio IC50
# [24] = Cytotoxicity against human HaCaT cells incubated for 72 hrs by MTT assay; type: toxicity, cell-based
# [25] = system: Staphylococcus epidermidis; assay: Antimicrobial activity against Staphylococcus epidermidis ATCC 35984 incubated for 18 hrs by twofold microdilution method; type: functional
SMILES,MIC [3],MIC [10],MIC [11],MIC [13],MIC [16],MIC [18],MIC [25],selectivity ratio [1],IC50 [2],IC50 [4],selectivity ratio [5],selectivity ratio [6],selectivity ratio [7],IC50 [8],IC50 [9],selectivity ratio [12],selectivity ratio [14],selectivity ratio [15],IC50 [17],IC50 at 72 h [20],also measured
O=C(O)c1cn(C2CC2)c2cc(N3CCNCC3)c(F)cc2c1=O [CIPROFLOXACIN],–,–,0.25 µg/mL,0.125 µg/mL,0.25 µg/mL,0.007 µg/mL,0.125 µg/mL,–,–,–,–,–,–,–,–,–,–,–,–,–,–
CC[C@@H](C(=O)[C@@H](C)[C@@H](O)[C@H](C)[C@@H]1O[C@@H]([C@@H](CC)C(=O)OCCCCCC[P+](c2ccccc2)(c2ccccc2)c2ccc(N(C)C)cc2)CC[C@@H]1C)[C@H]1O[C@]2(C=C[C@@H](O)[C@]3(CC[C@@](C)([C@H]4CC[C@](O)(CC)[C@H](C)O4)O3)O2)[C@H](C)C[C@@H]1C.[Br-],8 µg/mL,8 µg/mL,8 µg/mL,8 µg/mL,8 µg/mL,> 256 µg/mL,8 µg/mL,0.4,880 nM,850 nM,0.8,1,0.8,580 nM,1470 nM,0.5,1,0.7,710 nM,600 nM,MIC [19]: > 256 µg/mL; selectivity ratio [21]: 1.2; selectivity ratio [22]: 0.8; selectivity ratio [23]: 0.7; IC50 at 72 h [24]: 710 nM
COc1cccc2c1C(=O)c1c(O)c3c(c(O)c1C2=O)C[C@@](O)(C(=O)CO)C[C@@H]3O[C@H]1C[C@H](N)[C@H](O)[C@H](C)O1 [DOXORUBICIN],–,–,–,–,–,–,–,–,830 nM,630 nM,–,–,–,–,–,–,–,–,–,2010 nM,–

# Now from value to compound, other results behind:
MIC [3],MIC [10],MIC [11],MIC [13],MIC [16],MIC [18],MIC [25],SMILES,selectivity ratio [1],IC50 [2],IC50 [4],selectivity ratio [5],selectivity ratio [6],selectivity ratio [7],IC50 [8],IC50 [9],selectivity ratio [12],selectivity ratio [14],selectivity ratio [15],IC50 [17],IC50 at 72 h [20],also measured
2 µg/mL,2 µg/mL,2 µg/mL,2 µg/mL,2 µg/mL,> 256 µg/mL,2 µg/mL,CCCC[P+](CCCC)(CCCC)CCCCCCOC(=O)[C@H](CC)[C@H]1CC[C@H](C)[C@H]([C@@H](C)[C@H](O)[C@H](C)C(=O)[C@H](CC)[C@H]2O[C@]3(C=C[C@@H](O)[C@]4(CC[C@@](C)([C@H]5CC[C@](O)(CC)[C@H](C)O5)O4)O3)[C@H](C)C[C@@H]2C)O1.[Br-],0.2,1020 nM,1050 nM,0.6,0.9,1,500 nM,2890 nM,0.2,1.3,0.6,670 nM,650 nM,MIC [19]: > 256 µg/mL; selectivity ratio [21]: 1.2; selectivity ratio [22]: 0.6; selectivity ratio [23]: 0.6; IC50 at 72 h [24]: 620 nM
4 µg/mL,4 µg/mL,8 µg/mL,8 µg/mL,8 µg/mL,> 256 µg/mL,8 µg/mL,CC[C@@H](C(=O)[C@@H](C)[C@@H](O)[C@H](C)[C@@H]1O[C@@H]([C@@H](CC)C(=O)OCCCCCC[P+](c2ccc(OC)cc2)(c2ccc(OC)cc2)c2ccc(OC)cc2)CC[C@@H]1C)[C@H]1O[C@]2(C=C[C@@H](O)[C@]3(CC[C@@](C)([C@H]4CC[C@](O)(CC)[C@H](C)O4)O3)O2)[C@H](C)C[C@@H]1C.[Br-],0.4,600 nM,920 nM,0.7,0.8,0.7,530 nM,1400 nM,0.5,1.1,0.7,810 nM,600 nM,MIC [19]: > 256 µg/mL; selectivity ratio [21]: 1.2; selectivity ratio [22]: 1.1; selectivity ratio [23]: 1; IC50 at 72 h [24]: 630 nM
8 µg/mL,8 µg/mL,16 µg/mL,16 µg/mL,8 µg/mL,> 256 µg/mL,16 µg/mL,CC[C@@H](C(=O)[C@@H](C)[C@@H](O)[C@H](C)[C@@H]1O[C@@H]([C@@H](CC)C(=O)OCCCCCC[P+](c2ccc(C)cc2)(c2ccc(C)cc2)c2ccc(C)cc2)CC[C@@H]1C)[C@H]1O[C@]2(C=C[C@@H](O)[C@]3(CC[C@@](C)([C@H]4CC[C@](O)(CC)[C@H](C)O4)O3)O2)[C@H](C)C[C@@H]1C.[Br-],0.4,830 nM,980 nM,1.1,1.5,0.9,610 nM,1580 nM,0.7,1.1,0.7,720 nM,670 nM,MIC [19]: > 256 µg/mL; selectivity ratio [21]: 1.7; selectivity ratio [22]: 1.3; selectivity ratio [23]: 0.8; IC50 at 72 h [24]: 1050 nM
2 µg/mL,2 µg/mL,2 µg/mL,2 µg/mL,2 µg/mL,256 µg/mL,2 µg/mL,CC[C@@H](C(=O)[C@@H](C)[C@@H](O)[C@H](C)[C@@H]1O[C@@H]([C@@H](CC)C(=O)OCCCCCC[P+](c2ccccc2)(c2ccccc2)c2ccccc2)CC[C@@H]1C)[C@H]1O[C@]2(C=C[C@@H](O)[C@]3(CC[C@@](C)([C@H]4CC[C@](O)(CC)[C@H](C)O4)O3)O2)[C@H](C)C[C@@H]1C.[Br-],0.3,2650 nM,720 nM,1.1,0.3,0.2,710 nM,1850 nM,0.4,0.9,0.9,2570 nM,630 nM,MIC [19]: 256 µg/mL; selectivity ratio [21]: 1.1; selectivity ratio [22]: 0.3; selectivity ratio [23]: 0.2; IC50 at 72 h [24]: 780 nM
4 µg/mL,4 µg/mL,4 µg/mL,16 µg/mL,64 µg/mL,> 256 µg/mL,8 µg/mL,CC[C@@H](C(=O)[C@@H](C)[C@@H](O)[C@H](C)[C@@H]1O[C@@H]([C@@H](CC)C(=O)OCCCC[P+](c2ccc(OC)cc2)(c2ccc(OC)cc2)c2ccc(OC)cc2)CC[C@@H]1C)[C@H]1O[C@]2(C=C[C@@H](O)[C@]3(CC[C@@](C)([C@H]4CC[C@](O)(CC)[C@H](C)O4)O3)O2)[C@H](C)C[C@@H]1C.[Br-],0.3,1420 nM,660 nM,1.7,0.9,0.5,730 nM,2240 nM,0.5,0.9,1,1280 nM,670 nM,MIC [19]: > 256 µg/mL; selectivity ratio [21]: 1.5; selectivity ratio [22]: 0.8; selectivity ratio [23]: 0.5; IC50 at 72 h [24]: 1120 nM
